# Measurements from patent US10563263B2, “Genetic polymorphisms associated with statin response and cardiovascular diseases, methods of detection and uses thereof” (CELERA CORPORATION, priority 2010, dated 2020).
# Tested on: CHD (death from CHD, nonfatal MI, or revascularization)
# Experiment: WOSCOPS: SNP by pravastatin treatment interaction, logistic regression (synergy index), CHD endpoint
# Type: in vivo, human
# Settings: for OR (synergy index), WOSCOPS, Prava vs Placebo: CHD endpoint; for OR (synergy index): WOSCOPS
# Text: CARE was a secondary prevention trial and WOSCOPS was a primary prevention trial.
# The CHD endpoint was defined in the analyses herein of CARE as a composite endpoint of fatal CHD, definite non-fatal MI, or revascularization, and was defined in the analyses herein of WOSCOPS as a composite endpoint of death from CHD, nonfatal MI, or revascularization. In both the CARE and WOSCOPS analyses herein, the CVD endpoint was defined as a composite endpoint of CHD or stroke. […] Revascularization, which can include percutaneous transluminal coronary angioplasty (PTCA), stent placement, and coronary artery bypass graft (CABG), are medical interventions that indicate the presence of CHD.
# Cohort and case-only study designs were used to identify SNPs associated with response to statin treatment.
# For each SNP, a logistic regression model having treatment status as the dependent variable and SNP as the independent predictor variable was performed, with terms for age, sex and race included in the model as covariates. The anti-log of the regression coefficient corresponding to the SNP is an estimate of the synergy index (SI) (Davis et al., “Imputing gene-treatment interactions when the genotype distribution is unknown using case-only and putative placebo analyses-a new method for the Genetics of Hypertension Associated Treatment (GenHAT) study”, Statistics in Medicine 23: (2004), pages 2413-2427). The SI is a ratio of odds ratios: for example in the CARE and WOSCOPS studies, the SI represents the factor by which the odds-ratio of statin treatment, compared with placebo, among major homozygous individuals is multiplied by in order to obtain the odds-ratio of treatment vs. placebo among heterozygous individuals; and multiplied by a second time to obtain the odds-ratio of treatment vs. placebo in minor homozygous individuals. The case-only study design results in a valid estimate of the SI under the assumption that genotype and treatment are independent in the population. In a randomized clinical trial, genotype and treatment are independent by design. The p-value for the regression coefficient corresponding to the SNP results from a test of the null hypothesis that the regression coefficient is equal to zero (SI is equal to one) and thus small p-values indicate the SI is unlikely equal to one and that the effect of treatment likely differs by genotype. […]
smiles,measurement,setting,value
"CC[C@H](C)C(=O)O[C@H]1C[C@H](O)C=C2C=C[C@H](C)[C@H](CC[C@@H](O)C[C@@H](O)CC(=O)O)[C@H]21 [Pravastatin, pravastatin]","OR (synergy index), WOSCOPS, Prava vs Placebo","SNP rs198462 (A1 G, A2 A), rec model, Caseonly",2.12
same,"OR (synergy index), WOSCOPS, Prava vs Placebo","SNP rs198476 (A1 G, A2 A), rec model, cohort",1.61
same,"OR (synergy index), WOSCOPS, Prava vs Placebo","SNP rs471579 (A1 A, A2 C), add model, Caseonly",1.62
same,"OR (synergy index), WOSCOPS, Prava vs Placebo","SNP rs1324012 (A1 A, A2 G), add model, Caseonly",0.60
same,"OR (synergy index), WOSCOPS, Prava vs Placebo","SNP rs1917527 (A1 A, A2 C), rec model, Caseonly",0.73
same,"OR (synergy index), WOSCOPS, Prava vs Placebo","SNP rs7873371 (A1 A, A2 G), add model, Caseonly",1.59
same,OR (synergy index),"rs992695, Imputed, allele (A1) C, model ADD, NMISS 431",0.7364
same,OR (synergy index),"rs992695, Imputed, allele (A1) C, model DOM, NMISS 431",0.6065
same,OR (synergy index),"rs9881685, Imputed, allele (A1) A, model ADD, NMISS 431",0.4853
same,OR (synergy index),"rs9881685, Imputed, allele (A1) A, model DOM, NMISS 431",0.4903
same,OR (synergy index),"rs9936999, Imputed, allele (A1) G, model DOM, NMISS 249",1.779
same,WOSCOPS OR,"rs1948, source CaseOnly, model dom, endpoint CHD",1.96
same,WOSCOPS OR,"rs198476, Source cohort",1.61
same,WOSCOPS OR,"rs238272, source CaseOnly, model add, endpoint CHD",1.46
same,WOSCOPS OR,"rs264122, Source cohort",0.66
same,OR (synergy index),"rs483159 allele T, DOM model, Imputed",1.412
same,OR (synergy index),"rs489441 allele G, ADD model, Imputed",1.6
same,OR (synergy index),"rs489441 allele G, DOM model, Imputed",1.651
same,WOSCOPS OR,"rs694780, Source caseonly",0.62
same,WOSCOPS OR,"rs842796, source CaseOnly, model dom, endpoint CHD",1.38
same,WOSCOPS OR,"rs886469, source CaseOnly, model dom, endpoint CHD",0.55
same,WOSCOPS OR,"rs912366, source CaseOnly, model dom, endpoint CHD",1.79
same,WOSCOPS OR,"rs969356, source CaseOnly, model dom, endpoint CHD",0.54
same,WOSCOPS OR,"rs1009748, Source cohort",1.35
same,WOSCOPS OR,"rs1015199, Source caseonly",1.66
same,WOSCOPS OR,"rs1190706, Source cohort",0.70
same,WOSCOPS OR,"rs1336400, Source caseonly",1.35
same,WOSCOPS OR,"rs1538185, source cohort, model dom, endpoint CHD",1.41
same,WOSCOPS OR,"rs1544214, source CaseOnly, model add, endpoint CHD",1.35
same,WOSCOPS OR,"rs1615197, source CaseOnly, model dom, endpoint CHD",2.25
same,WOSCOPS OR,"rs1705244, source CaseOnly, model dom, endpoint CHD",0.52
same,WOSCOPS OR,"rs1864924, source CaseOnly, model add, endpoint CHD",1.36
same,WOSCOPS OR,"rs1877986, source cohort, model dom, endpoint CHD",0.71
same,WOSCOPS OR,"rs1884897, source CaseOnly, model rec, endpoint CHD",1.78
same,WOSCOPS OR,"rs2008165, source cohort, model add, endpoint CHD",0.62
same,WOSCOPS OR,"rs2069542, source CaseOnly, model add, endpoint CHD",1.49
same,WOSCOPS OR,"rs2104506, source CaseOnly, model add, endpoint CHD",0.65
same,WOSCOPS OR,"rs2108425, Source caseonly",0.62
same,WOSCOPS OR,"rs2263901, source CaseOnly, model add, endpoint CHD",1.57
same,WOSCOPS OR,"rs2263920, source CaseOnly, model rec, endpoint CHD",0.41
same,WOSCOPS OR,"rs2265346, source CaseOnly, model dom, endpoint CHD",0.42
same,WOSCOPS OR,"rs2273816, source CaseOnly, model add, endpoint CHD",1.69
same,WOSCOPS OR,"rs2274473, source CaseOnly, model dom, endpoint CHD",0.48
same,WOSCOPS OR,"rs2327412, Source caseonly",1.41
same,WOSCOPS OR,"rs2418412, source cohort, model rec, endpoint CHD",1.58
same,WOSCOPS OR,"rs2616548, Source caseonly",1.37
same,WOSCOPS OR,"rs2648694, Source caseonly",2.29
same,WOSCOPS OR,"rs2655222, Source caseonly",0.20
same,WOSCOPS OR,"rs2941528, source CaseOnly, model add, endpoint CHD",0.58
same,WOSCOPS OR,"rs2993156, Source caseonly",0.76
same,WOSCOPS OR,"rs3732788, source CaseOnly, model add, endpoint CHD",0.44
same,WOSCOPS OR,"rs3759607, source CaseOnly, model dom, endpoint CHD",1.73
same,WOSCOPS OR,"rs3763978, Source cohort",0.68
same,WOSCOPS OR,"rs3998860, source CaseOnly, model add, endpoint CHD",0.70
same,WOSCOPS OR,"rs4240808, Source caseonly",0.61
same,WOSCOPS OR,"rs4242281, Source caseonly",1.46
same,OR (synergy index),"rs4315598 allele T, ADD model, Imputed",1.407
same,OR (synergy index),"rs4315598 allele T, REC model, Imputed",1.414
same,OR (synergy index),"rs4321395 allele A, DOM model, Imputed",0.5278
same,OR (synergy index),"rs4321596 allele T, REC model, Genotyped",3.01
same,OR (synergy index),"rs4324417 allele T, DOM model, Imputed",1.541
same,OR (synergy index),"rs4328619 allele G, DOM model, Genotyped",0.6446
same,OR (synergy index),"rs4338909 allele T, ADD model, Imputed",1.42
same,OR (synergy index),"rs4370878 allele G, DOM model, Imputed",1.497
same,OR (synergy index),"rs4379434 allele T, DOM model, Genotyped",1.603
same,OR (synergy index),"rs4416407 allele T, DOM model, Imputed",1.502
same,OR (synergy index),"rs4417899 allele C, REC model, Imputed",0.6657
same,WOSCOPS OR,"rs4420312, Source caseonly",0.64
same,OR (synergy index),"rs4442732 allele A, ADD model, Imputed",0.7543
same,OR (synergy index),"rs4444612 allele G, ADD model, Imputed",1.407
same,OR (synergy index),"rs4444612 allele G, REC model, Imputed",1.414
same,OR (synergy index),"rs4450660 allele C, DOM model, Imputed",1.776
same,OR (synergy index),"rs4509702 allele C, DOM model, Imputed",1.497
same,OR (synergy index),"rs4533145 allele T, DOM model, Imputed",0.6617
same,OR (synergy index),"rs4557006 allele A, DOM model, Imputed",0.5409
same,OR (synergy index),"rs4570530 allele C, DOM model, Imputed",1.497
same,OR (synergy index),"rs4615971 allele C, DOM model, Imputed",1.474
same,OR (synergy index),"rs4628119 allele A, DOM model, Imputed",0.5304
same,OR (synergy index),"rs4664443 allele G, ADD model, Imputed",0.6931
same,WOSCOPS OR,"rs4682522, source CaseOnly, model dom, endpoint CHD",0.49
same,OR (synergy index),"rs4688259 allele T, DOM model, Imputed",1.502
same,OR (synergy index),"rs4688632 allele G, REC model, Imputed",0.6718
same,OR (synergy index),"rs4695284 allele A, ADD model, Imputed",1.566
same,OR (synergy index),"rs4700302 allele A, ADD model, Imputed",0.5418
same,OR (synergy index),"rs4702720 allele A, ADD model, Imputed",0.7075
same,OR (synergy index),"rs4702720 allele A, DOM model, Imputed",0.7149
same,OR (synergy index),"rs4714484 allele A, ADD model, Imputed",0.5609
